This is an account of results in patent publication US10160785B2, “Antimicrobial peptides and their use for the treatment of topical infections” (priority 2015, dated 2018).

Some results are limits rather than exact numbers.

The test system of one data set is human red blood cells. Nature of the data set: in vitro. In a few lines: (§1)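 Peptides at 2-200 μmol.l^−1 incubated 1 h at 37 °C with 5% v/v human erythrocyte suspension in physiological solution. Released haemoglobin in supernatant read at 540 nm against buffer (0%) and 0.2% Triton X100 (100%) lysis controls. LC50 is the peptide concentration lysing 50% of cells.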

For data set [1], the system named is Staphylococcus aureus Liberec. Particulars: Staphylococcus aureus Liberec clinical isolate; 37° C., 20 h. In a few lines: (§2)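 Grow isolates to exponential phase and dilute in fresh medium. Add to peptide in LB, twofold dilutions giving 0.1–100 μmol.l^−1 final, about 10^5 CFU per well.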
In data set [2] the test system is Methicillin resistant Staphylococcus aureus (MRSA) 6271. Particulars: 37° C., 20 h. In a few lines: as §2
The test system of another data set is Candida albicans Olomouc. Particulars: Candida albicans Olomouc; YPD medium; 37° C., 20 h (Example 2).
For a further data set, the system named is Bacillus subtilis. Particulars: Bacillus subtilis; 37° C., 20 h. The method in brief: as §2
Data set [3] deals with Enterococcus faecalis Motol. Particulars: BHI medium, 37° C., 20 h.
Data set [4] concerns Pseudomonas aeruginosa Liberec. Particulars: Pseudomonas aeruginosa Liberec; 37° C., 20 h. In a few lines:
as §2

For the next data set, the system named is Escherichia coli. Particulars: 37° C., 20 h. The method in brief:
as §2

Data set [5] concerns Pseudomonas aeruginosa 5482. Particulars: 37° C., 20 h. The method in brief: as §2
Data set [6] deals with Staphylococcus epidermidis Motol. Particulars: 37° C., 20 h. In a few lines:
as §2

The test system of data set [7] is Staphylococcus aureus Motol. Particulars: Staphylococcus aureus Motol clinical isolate; 37° C., 20 h. In a few lines:
as §2

In data set [8] the test system is S. aureus (Liberec) biofilm. The data set can be described thus: Bacterial biofilm, remaining metabolic activity (MTT). Particulars: remaining metabolic activity of biofilm, 20 h. It is filed as cell-based, Staphylococcus aureus. In a few lines: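 Biofilms of S. aureus or P. aeruginosa (Liberec) were grown 24 h at 37° C with shaking in BHI plus 1% glucose from ca. 10^8 CFU/ml inocula. After washing, biofilms were exposed 20 h to peptides at 1–128 μmol.l^−1. Surviving metabolic activity was measured by MTT (40 min, formazan in DMSO, A540) as percent of untreated biofilm, blank-corrected.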

Another data set deals with Micrococcus luteus. Particulars: Micrococcus luteus; 37° C., 20 h. In a few lines: as §2
Another data set concerns P. aeruginosa (Liberec). Nature of the data set: Synergistic effect of peptides with antibiotics, FIC index. It is filed as cell-based, Pseudomonas aeruginosa. Particulars: FIC <0.5 synergism, 0.5-2 additive, >2 antagonism, averages of three experiments. The method in brief:
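Checkerboard MICs of two-fold serial dilutions of peptide plus antibiotic, same broth method as single-agent MICs. FIC index is the sum of each agent's MIC in combination divided by its MIC alone. <0.5 = synergy, 0.5–2 = additive, >2 = antagonism.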

In data set [9] the test system is Candida albicans (Olomouc). The data set can be described thus: microbe, parasite or virus in culture. It is filed as cell-based. Particulars: RPMI broth microdilution, 35° C., 48 hours, visual. The method in brief:
(§3)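 RPMI 1640/0.165 M MOPS microdilution; peptides 0.625–160 μmol.l^−1 as pipetted; final 5×10^2–2.5×10^3 CFU/ml; 35 °C, static, 48 h; visual MIC = no-growth endpoint.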

In a further data set the test system is Candida glabrata DSY 565. Nature of the data set: microbe, parasite or virus in culture. Particulars: RPMI broth microdilution, 35° C., 48 hours, visual. The format is cell-based. In a few lines: as §3
Data set [10] relates to Candida glabrata ATCC 2001. The data set can be described thus: microbe, parasite or virus in culture. Particulars: RPMI broth microdilution, 35° C., 48 hours, visual. The format is cell-based. In a few lines: as §3
(In general: Dilution methods test growth across graded concentrations, often in twofold steps.)

Data set [11] concerns Candida tropicalis ATCC 750. The data set can be described thus: microbe, parasite or virus in culture. The format is cell-based. Particulars: RPMI broth microdilution, 35° C., 48 hours, visual. In a few lines:
as §3

In data set [12] the test system is Candida dubliniensis ATCC MYA-646. The data set can be described thus: microbe, parasite or virus in culture. Particulars: RPMI broth microdilution, 35° C., 48 hours, visual. The format is cell-based. In a few lines: as §3
For data set [13], the system named is Candida albicans ATCC MYA-2876. Nature of the data set: microbe, parasite or virus in culture. Particulars: RPMI broth microdilution, 35° C., 48 hours, visual. The format is cell-based. The method in brief: as §3
For a further data set, the system named is Candida krusei ATCC 6258. The data set can be described thus: microbe, parasite or virus in culture. It is filed as cell-based. Particulars: RPMI broth microdilution, 35° C., 48 hours, visual. In a few lines: as §3
The nature of the next data set: in vitro. Particulars: human. In a few lines: as §1
The test system of another data set is S. aureus (Liberec). The data set can be described thus: Synergistic effect of peptides with antibiotics, FIC index. The format is cell-based, Staphylococcus aureus. Particulars: peptide combined with amoxicillin; FIC <0.5 synergism, 0.5-2 additive, >2 antagonism; averages of three experiments. The procedure: MICs values of various combinations of two fold serial dilutions of peptides and antibiotics were determined using the same methodology as in the case of antimicrobial activity determination (Example 2). To consider the type of the final effect, FIC indexes (fractional inhibitory concentration) were used and calculated as follows:
[formula] where MICPC and MICAC are the MICs of the peptide and antibiotic in combination, respectively, and MICP and MICA are the MICs of the peptide and antibiotic tested alone, respectively. FIC<0.5 were considered as synergy, 0.5≤FIC≤2 as addition effect, and FIC>2 as antagonism.

Regarding “H-GIMSSLMKKLAAHIAK-NH2 [hylanine, reference compound]”, the “toxicity against eukaryotic cells measured as hemolytic activity” value in the data set with human red blood cells (in words) is on record as “very low”.
For “H-Gly-Ile-Leu-Ser-Ser-Leu-Trp-Lys-Lys-Leu-Lys-Lys-Ile-Ile-Ala-Lys-NH2 (H-GILSSLWKKLKKIIAK-NH2; also: D-amino acids (positions not given here)) [XIX]”, the “Antimicrobial activity MIC S. a. Liberec” value in data set [1] was 3.2 µM. In addition, the “Antimicrobial activity MIC S. a. 6271” value in [2] is 6.3 µM. Moreover, the “Antimicrobial activity MIC C. a. Olomouc” value with Candida albicans Olomouc was found to be 26.0 µM. Moreover, the “Antimicrobial activity MIC B. s.” value in the data set on Bacillus subtilis was found to be 2.0 µM. The “Antimicrobial activity MIC E. f. Motol” value in data set [3] turned out to be 6.5 µM. For the same substance, the “Antimicrobial activity MIC P. a. Liberec” value in [4] was 8.5 µM. Moreover, in the data set with Escherichia coli, the “Antimicrobial activity MIC E. c.” value amounted to 13.0 µM. Also, the “Antimicrobial activity MIC P. a. 5482” value in data set [5] was determined as 6.3 µM. Also, in [6], the “Antimicrobial activity MIC S. e. Motol” value amounted to 1.6 µM. For the same substance, the “Antimicrobial activity MIC S. a. Motol” value in [7] amounted to 3.2 µM. For the same substance, the CC50 in the data set on human red blood cells (read-out: Hemolytic activity LC50, lysis of 50% of human erythrocytes, 1 h at 37° C.) was above 200 µM. Moreover, the “Metabolic activity (%) S. aureus (Liberec)” value in data set [8] (peptide concentration 8 μmol · l^−1) is 72.8%; in data set [8] (peptide concentration 16 μmol · l^−1), 2.8%; in data set [8] (peptide concentration 32 μmol · l^−1) it was 2.3%; in data set [8] (peptide concentration 64 μmol · l^−1) it was 2.3%; in data set [8] (peptide concentration 128 μmol · l^−1) it was 1.7%.
Turning to H-GIMSSLMKKLKKIIKK-NH2 [VII], the “Antimicrobial activity MIC S. a. Liberec” value in data set [1] came out at 18.0 µM. Besides, the “Antimicrobial activity MIC S. a. 6271” value in data set [2] was found to be 54.0 µM. Also, the “Antimicrobial activity MIC C. a. Olomouc” value with Candida albicans Olomouc was 6.3 µM. In addition, the “Antimicrobial activity MIC B. s.” value with Bacillus subtilis is 2.5 µM. Also, in the data set with Micrococcus luteus, the “Antimicrobial activity MIC M. l.” value was 1.9 µM. The “Antimicrobial activity MIC E. f. Motol” value in data set [3] was above 100 µM. Also, the “Antimicrobial activity MIC P. a. Liberec” value in data set [4] stood at 9.9 µM. Moreover, the “Antimicrobial activity MIC E. c.” value in the data set with Escherichia coli stood at 22.0 µM. Moreover, the “Antimicrobial activity MIC P. a. 5482” value in [5] worked out at 7.1 µM. Besides, the “Antimicrobial activity MIC S. e. Motol” value in [6] turned out to be 1.7 µM. The “Antimicrobial activity MIC S. a. Motol” value in [7] turned out to be 64.7 µM. In addition, the “FIC indexes (fractional inhibitory concentration) Combination with RIF against P. aeruginosa” value in the data set with P. aeruginosa (Liberec) (peptide combined with rifampicin) is 0.365. In addition, the “FIC indexes (fractional inhibitory concentration) Combination with TET against P. aeruginosa” value with P. aeruginosa (Liberec) (peptide combined with tetracycline) is 0.625. Besides, the “Antifungal activity MIC C. albicans Olomouc” value in data set [9] was 17.0 µM. For the same substance, the “Antifungal activity MIC C. glabrata DSY 565” value with Candida glabrata DSY 565 is 97.8 µM. Also, in data set [10], the “Antifungal activity MIC C. glabrata ATCC 2001” value was 40.0 µM. In [11], the “Antifungal activity MIC C. tropicalis ATCC 750” value worked out at 1.1 µM. For the same substance, the “Antifungal activity MIC C. dubliniensis ATCC MYA-646” value in [12] was 20.0 µM. The “Antifungal activity MIC C. albicans ATCC MYA-2876” value in data set [13] amounted to 22.0 µM. The “Antifungal activity MIC C. krusei ATCC 6258” value with Candida krusei ATCC 6258 was determined as 10.0 µM. In the data set “in vitro”, this substance gave an HC50 at 1 h above 400 µM. Besides, the “FIC indexes (fractional inhibitory concentration) Combination with AMX against S. aureus” value in the data set on S. aureus (Liberec) came to 0.167.
